Source: PubChem BioAssay AID200 (DTP/NCI, 2004)
Several values for one entry are separate records, joined by “and”; a condition that tells them apart may be missing. Equal entries are not always repeated. Toxic doses and inconclusive results are not listed.

Tested on: B6C3F1 mice, B16 melanoma ip, median survival T/C
Assay: NCI In Vivo Anticancer Drug Screen. Data for tumor model B16 Melanoma (intraperitoneal) in B6C3F1 mice
Conditions: endpoint: median survival time, schedule: Q01DX009 (ip), higher = longer survival
Procedure, shortened: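 Antitumor effect was judged in mice with transplanted tumors by dividing the treated group's survival measure by that of vehicle controls.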

[1] = dose: 37.5 mg/kg/injection, vehicle: Klucel (hydroxypropylcellulose) (HPC)
[2] = dose: 75.0 mg/kg/injection, vehicle: Klucel (hydroxypropylcellulose) (HPC)
[3] = dose: 12.5 mg/kg/injection, vehicle: saline with Tween-80
[4] = dose: 25.0 mg/kg/injection, vehicle: saline with Tween-80
[5] = dose: 50.0 mg/kg/injection, vehicle: saline with Tween-80
[6] = dose: 100.0 mg/kg/injection, vehicle: saline with Tween-80
[7] = dose: 200.0 mg/kg/injection, vehicle: saline with Tween-80
[8] = dose: 400.0 mg/kg/injection, vehicle: saline with Tween-80

SMILES: C#CCNC1=C(C)C(=O)C2=C(C1=O)[C@H](COC(N)=O)[C@]1(OC)[C@@H]3N[C@@H]3CN21
- T/C (dose: 0.75 mg/kg/injection, vehicle: distilled water + Tween-80): 91 % of control
- T/C (dose: 1.5 mg/kg/injection, vehicle: distilled water + Tween-80): 98 % of control
- T/C (dose: 6.25 mg/kg/injection, vehicle: distilled water + Tween-80): 241 % of control
- T/C (dose: 12.0 mg/kg/injection, vehicle: distilled water + Tween-80): 98 % of control

SMILES: Nc1ncnc2c1ncn2C1OC(CO)CC1O (stereo not given)
- T/C [1]: 121 % of control
- T/C [2]: 123 % of control

SMILES: CCOC(=O)Nc1cc2c(c(N)n1)N=C(c1ccc3ccccc3c1)CN2
- T/C (dose: 0.5 mg/kg/injection, vehicle: saline with Tween-80): 97 % of control
- T/C (dose: 1.0 mg/kg/injection, vehicle: saline with Tween-80): 110 % of control
- T/C (dose: 1.44 mg/kg/injection, vehicle: saline with Tween-80): 101 % of control
- T/C (dose: 2.0 mg/kg/injection, vehicle: saline with Tween-80): 113 % of control and 116 % of control
- T/C (dose: 2.4 mg/kg/injection, vehicle: saline with Tween-80): 106 % of control
- T/C (dose: 4.0 mg/kg/injection, vehicle: saline with Tween-80): 109 % of control and 122 % of control and 107 % of control
- T/C (dose: 6.67 mg/kg/injection, vehicle: saline with Tween-80): 113 % of control
- T/C (dose: 8.0 mg/kg/injection, vehicle: saline with Tween-80): 119 % of control
- T/C (dose: 11.12 mg/kg/injection, vehicle: saline with Tween-80): 119 % of control

SMILES: CCCCCCCC(=O)N/N=C(\CO)[C@]1(O)Cc2c(O)c3c(c(O)c2[C@@H](OC2CC(N)C(O)C(C)O2)C1)C(=O)c1c(OC)cccc1C3=O (stereo not given in full)
- T/C (dose: 1.5 mg/kg/injection, vehicle: saline): 154 % of control
- T/C (dose: 1.5 mg/kg/injection, vehicle: water): 171 % of control
- T/C (dose: 3.0 mg/kg/injection, vehicle: saline): 196 % of control
- T/C (dose: 3.0 mg/kg/injection, vehicle: water): 199 % of control
- T/C (dose: 6.0 mg/kg/injection, vehicle: saline): 216 % of control
- T/C (dose: 6.0 mg/kg/injection, vehicle: water): 320 % of control
- T/C (dose: 12.0 mg/kg/injection, vehicle: saline): 208 % of control
- T/C (dose: 12.0 mg/kg/injection, vehicle: water): 320 % of control
- T/C (dose: 24.0 mg/kg/injection, vehicle: saline): 208 % of control

SMILES: CSCS(=O)C[C@H](CO)NC(=O)/C=C/c1c(C)[nH]c(=O)[nH]c1=O (stereo not given in full)
- T/C (dose: 0.03 mg/kg/injection, vehicle: saline): 100 % of control and 104 % of control
- T/C (dose: 0.06 mg/kg/injection, vehicle: saline): 112 % of control and 102 % of control
- T/C (dose: 0.12 mg/kg/injection, vehicle: saline): 98 % of control and 102 % of control
- T/C (dose: 0.25 mg/kg/injection, vehicle: saline): 118 % of control and 98 % of control
- T/C (dose: 0.5 mg/kg/injection, vehicle: saline): 102 % of control
- T/C (dose: 1.0 mg/kg/injection, vehicle: saline): 98 % of control

SMILES: c1ccc2sc(SSN3CC4CCC(CC4)C3)nc2c1
- T/C [3]: 95 % of control and 108 % of control
- T/C [4]: 93 % of control and 102 % of control
- T/C [5]: 87 % of control and 102 % of control
- T/C [6]: 97 % of control
- T/C [7]: 87 % of control
- T/C [8]: 88 % of control

SMILES: CC[C@@]1(O)C[C@H](OC2CC(N(C)C)C(OC3CC(O)C(OC4CCC(=O)C(C)O4)C(C)O3)C(C)O2)c2c(cc3c(c2O)C(=O)c2c(O)ccc(O)c2C3=O)[C@H]1C(=O)OC (stereo not given in full)
- T/C (dose: 0.25 mg/kg/injection, vehicle: water): 100 % of control
- T/C (dose: 0.5 mg/kg/injection, vehicle: water): 120 % of control
- T/C (dose: 1.0 mg/kg/injection, vehicle: water): 156 % of control

SMILES: Cc1cc(NCCN(C(C)C)C(C)C)nc(/N=C(\N)Nc2ccc(Cl)c(C(F)(F)F)c2)n1
- T/C (dose: 1.25 mg/kg/injection, vehicle: Klucel (hydroxypropylcellulose) (HPC)): 111 % of control
- T/C (dose: 2.5 mg/kg/injection, vehicle: Klucel (hydroxypropylcellulose) (HPC)): 106 % of control
- T/C (dose: 5.0 mg/kg/injection, vehicle: Klucel (hydroxypropylcellulose) (HPC)): 100 % of control
- T/C (dose: 10.0 mg/kg/injection, vehicle: Klucel (hydroxypropylcellulose) (HPC)): 86 % of control
- T/C (dose: 20.0 mg/kg/injection, vehicle: Klucel (hydroxypropylcellulose) (HPC)): 96 % of control
- T/C (dose: 40.0 mg/kg/injection, vehicle: Klucel (hydroxypropylcellulose) (HPC)): 98 % of control

SMILES: C=C1C(=O)OC2/C=C(\C)CC(O)/C=C(/CO)CC(OC(=O)/C(C)=C/C)C12 (stereo not given)
- T/C (dose: 7.5 mg/kg/injection, vehicle: saline + alcohol): 115 % of control
- T/C (dose: 7.5 mg/kg/injection, vehicle: saline with Tween-80): 102 % of control
- T/C (dose: 15.0 mg/kg/injection, vehicle: saline + alcohol): 123 % of control
- T/C (dose: 15.0 mg/kg/injection, vehicle: saline with Tween-80): 103 % of control
- T/C (dose: 15.0 mg/kg/injection, vehicle: saline): 98 % of control
- T/C (dose: 30.0 mg/kg/injection, vehicle: saline with Tween-80): 97 % of control
- T/C (dose: 30.0 mg/kg/injection, vehicle: saline): 116 % of control
- T/C (dose: 60.0 mg/kg/injection, vehicle: saline + alcohol): 155 % of control
- T/C (dose: 60.0 mg/kg/injection, vehicle: saline with Tween-80): 98 % of control
- T/C (dose: 60.0 mg/kg/injection, vehicle: saline): 120 % of control

SMILES: COc1ccc2c3c1OC1C(=O)CCC4C(C2)N(C)CCC314 (stereo not given)
- T/C (dose: 31.0 mg/kg/injection, vehicle: saline): 99 % of control

SMILES: NC(CSSCC(N)C(=O)O)C(=O)O (stereo not given)
- T/C [6]: 101 % of control
- T/C [7]: 103 % of control
- T/C [8]: 117 % of control
- T/C (dose: 800.0 mg/kg/injection, vehicle: saline with Tween-80): 102 % of control

SMILES: Cn1c2ccccc2c2ccc3c(c21)C(=O)C=CC3=O
- T/C (dose: 6.25 mg/kg/injection, vehicle: Klucel (hydroxypropylcellulose) (HPC)): 96 % of control
- T/C (dose: 12.5 mg/kg/injection, vehicle: Klucel (hydroxypropylcellulose) (HPC)): 107 % of control

SMILES: CN1C(=O)C(=Cc2ccc(O)cc2)C(=O)N(C)C1=O
- T/C [3]: 97 % of control
- T/C [4]: 99 % of control
- T/C [5]: 101 % of control
- T/C [6]: 104 % of control
- T/C [7]: 94 % of control

SMILES: COC(=O)[C@@H]1c2cc3c(c(O)c2[C@@H](OC)C[C@@]1(C)O)C(=O)c1c(O)cc2c(c1C3=O)OC1O[C@@]2(C)[C@H](O)[C@@H](N(C)C)[C@@H]1O
- T/C (dose: 12.5 mg/kg/injection, vehicle: saline): 158 % of control
- T/C (dose: 25.0 mg/kg/injection, vehicle: saline): 159 % of control
- T/C (dose: 50.0 mg/kg/injection, vehicle: saline): 158 % of control

SMILES: Cc1ncc([N+](=O)[O-])n1CCO
- T/C [1]: 103 % of control
- T/C [2]: 100 % of control
- T/C (dose: 150.0 mg/kg/injection, vehicle: Klucel (hydroxypropylcellulose) (HPC)): 101 % of control
- T/C (dose: 300.0 mg/kg/injection, vehicle: Klucel (hydroxypropylcellulose) (HPC)): 92 % of control
- T/C (dose: 600.0 mg/kg/injection, vehicle: Klucel (hydroxypropylcellulose) (HPC)): 100 % of control
